Laboratory results: US20100048604A1, “Ligands for Aldoketoreductases” (priority 2004, published 2010)
Residue numbers refer to the chain shown, from its start.

Columns and labels:
Format in all cases: biochemical
[1] = target: T1, AKR1C4 (Homo sapiens, UniProt P17516); test: Steady state kinetic parameters of fluorogenic substrates with purified AKR1C isozymes; set-up: key to activity as substrate (product formation): no activity = 10 μg enzyme produced less than 0.1 nmol product per min (determined fluorimetrically); conditions: isozyme 1C4, fluorimetric; for Kcat / Km: potassium phosphate buffer pH 6, NADPH; for activity as substrate (product formation): 10 μg enzyme
T1 construct: gift of the Penning lab (University of Pennsylvania School of Medicine)
T1 sequence (P17516 1-323): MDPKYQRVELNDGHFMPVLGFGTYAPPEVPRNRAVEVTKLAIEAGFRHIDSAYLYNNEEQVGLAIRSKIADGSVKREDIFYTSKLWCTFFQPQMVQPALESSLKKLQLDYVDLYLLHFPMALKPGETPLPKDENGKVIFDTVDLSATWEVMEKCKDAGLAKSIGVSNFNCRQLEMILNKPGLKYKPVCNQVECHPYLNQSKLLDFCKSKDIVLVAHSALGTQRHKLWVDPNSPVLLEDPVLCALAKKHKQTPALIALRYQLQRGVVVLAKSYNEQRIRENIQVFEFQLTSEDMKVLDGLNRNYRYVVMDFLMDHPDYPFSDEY
From the text: (§1) AKR1C2 and AKR1C3 Selective Probes: Probes (5a-5i) were examined as substrates for the four purified human HSD isozymes (AKR1C1-AKR1C4) under standard assay conditions [catalytic quantities of enzyme, an excess of cofactor (NADPH)]. The initial reaction rates were used to derive standard kinetic parameters (kcat and Km, Materials and Methods).
(§2) Substrate tolerance of AKR1Cs: Isozyme Activity with 5a-5i: Activity of the second generation of fluorogenic substrates with the AKR1C isozymes was determined as follows. To a STARNA semi-micro fluorimeter cell (with 4 polished windows) was added 100 μL of 1 M potassium phosphate buffer (pH 6), 840 μL doubly deionized water, and 20 μL of 12.5 mM NADPH. After mixing the aqueous components thoroughly, 20 μL of acetonitrile was added as a cosolvent and mixed well. 20 μL of 2.5 mM second generation fluorogenic ketone in acetonitrile (5a-5i) was then added and mixed. 4 μL of undiluted AKR1C (provided generously by the Penning lab at concentrations of 2.5 mg/mL) were then added to the cuvette for a total of 10 μg purified enzyme in the 1 mL assay volume. Fluorescence arising from the respective alcohol reduction product was then monitored over the course of 5-10 minutes.
(§3) Binding constant and catalytic rates (Km and kcat) of the second generation of fluorogenic substrates was determined as follows. To a STARNA semi-micro fluorometer cell (with 4 polished windows) was added 100 μL of 1 M potassium phosphate buffer (pH 6), 840 μL doubly deionized water, and 20 AL of 12.5 mM NADPH. After mixing the aqueous components thoroughly, 20 μL of acetonitrile was added as a cosolvent and mixed well. 20 μL of the second generation fluorogenic ketone (5a-5i) was then added and mixed to achieve assay concentrations of 5Km to Km/5. To initiate the reduction, 2 or 4 μL of diluted AKR1C (1:2 to 1:100, depending on the kinetics of a particular isozyme's reduction of a substrate) was then added to the cuvette. Fluorescence arising from the respective alcohol reduction product was then monitored over the course of 3 minutes (Excitation and emission band pass slits both at 4 nm, lamp 700 V, λexc 410 nm, λem 510). The rate of product formation, expressed in units of nanomoles per minute, were calculated according to previously published procedures (Wierzchowski, J.; Dafeldecker, W. P.; Holmquist, B.; Vallee, B. L. Anal. Biochem. 1989, 178, 57-62):
(§4) initial rate=[nst×(Ft−F0)/(Fst)]/t (1)
(§5) where Ft and F0 represent the fluorescence at times t and 0 minutes, nst is the nanomoles of product in a known concentration of product, and Fst is the fluorescence resulting from nst of product. Kinetic parameters were approximated by GraFit (Erithacus Software, Surrey, UK) nonlinear regression analysis program to fit the untransformed data to a hyperbolic function as originally described (Wierzchowski, J.; Dafeldecker, W. P.; Holmquist, B.; Vallee, B. L. Anal. Biochem. 1989, 178, 57-62). Reported enzymatic kinetic parameters are the average of three independent determinations from three different preparations of substrate and enzyme.

[2] = target: T2, AKR1C3 (Homo sapiens, UniProt P42330); test: as above; conditions: isozyme 1C3, fluorimetric; for Kcat / Km: potassium phosphate buffer pH 6, NADPH; for activity as substrate (product formation): 10 μg enzyme
T2 construct: gift of Professor Trevor Penning (University of Pennsylvania School of Medicine)
T2 sequence (P42330 1-323): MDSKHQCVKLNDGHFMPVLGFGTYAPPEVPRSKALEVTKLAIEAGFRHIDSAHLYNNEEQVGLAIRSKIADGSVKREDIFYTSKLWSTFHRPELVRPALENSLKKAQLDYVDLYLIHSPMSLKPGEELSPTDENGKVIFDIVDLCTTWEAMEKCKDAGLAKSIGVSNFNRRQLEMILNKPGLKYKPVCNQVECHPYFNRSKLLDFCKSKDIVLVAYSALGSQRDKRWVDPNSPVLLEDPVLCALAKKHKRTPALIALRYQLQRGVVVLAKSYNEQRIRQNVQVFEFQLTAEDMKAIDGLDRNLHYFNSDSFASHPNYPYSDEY
Experimental: The initial reaction rates were used to derive standard kinetic parameters (kcat and Km, Materials and Methods).
as §2, with “To a STARNA semi-micro fluorimeter cell (with 4 polished windows) was added 100 μL of 1 M potassium phosphate buffer (pH 6), 840 μL doubly deionized water, and 20 μL of 12.5 mM NADPH.” left out, “20 μL of 2.5 mM second generation fluorogenic ketone in acetonitrile (5a-5i) was then added and mixed.” left out
Binding constant and catalytic rates (Km and kcat) of the second generation of fluorogenic substrates was determined as follows. […] After mixing the aqueous components thoroughly, 20 μL of acetonitrile was added as a cosolvent and mixed well. […] To initiate the reduction, 2 or 4 μL of diluted AKR1C (1:2 to 1:100, depending on the kinetics of a particular isozyme's reduction of a substrate) was then added to the cuvette. Fluorescence arising from the respective alcohol reduction product was then monitored over the course of 3 minutes (Excitation and emission band pass slits both at 4 nm, lamp 700 V, λexc 410 nm, λem 510).
as §4
where Ft and F0 represent the fluorescence at times t and 0 minutes, nst is the nanomoles of product in a known concentration of product, and Fst is the fluorescence resulting from nst of product. […] Reported enzymatic kinetic parameters are the average of three independent determinations from three different preparations of substrate and enzyme.

[3] = target: T3, AKR1C2 (Homo sapiens, UniProt P52895); test: as above; set-up: key to activity as substrate (product formation): no activity = 10 μg enzyme produced less than 0.1 nmol product per min (determined fluorimetrically); conditions: isozyme 1C2, fluorimetric; for activity as substrate (product formation): 10 μg enzyme
T3 construct: gift of the Penning lab (University of Pennsylvania School of Medicine)
T3 sequence (P52895 1-323): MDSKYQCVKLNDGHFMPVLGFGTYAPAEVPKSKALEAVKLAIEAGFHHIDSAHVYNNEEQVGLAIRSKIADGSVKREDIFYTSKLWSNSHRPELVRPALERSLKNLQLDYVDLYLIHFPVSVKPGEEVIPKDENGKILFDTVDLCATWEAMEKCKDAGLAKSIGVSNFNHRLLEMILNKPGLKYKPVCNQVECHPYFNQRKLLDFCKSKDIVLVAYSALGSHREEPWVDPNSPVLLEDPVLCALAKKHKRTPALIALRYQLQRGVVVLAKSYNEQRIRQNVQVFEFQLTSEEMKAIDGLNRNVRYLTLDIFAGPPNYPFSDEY
From the text: as §1, §2, §3, §4, §5

[4] = target: T4, AKR1C1 (Homo sapiens, UniProt Q04828); test: as above; set-up: key: no activity = 10 μg enzyme produced less than 0.1 nmol product per min (determined fluorimetrically); conditions: isozyme 1C1; 10 μg enzyme, fluorimetric
T4 construct: gift of the Penning lab (University of Pennsylvania School of Medicine)
T4 sequence (Q04828 1-323): T3 sequence (P52895 1-323) with V38T, H47R, V54L, S87C, M151V, H170R, L172Q
From the text: as §1, §2, §3, §4, §5

[5] = target: T2, AKR1C3; test: Determination of kinetic parameters for AKR1C3 (fluorogenic substrate 5); conditions: Type 2 isozyme of 3α-HSD (AKR 1C3)
Experimental: Whether the activity of human enzymes may be imaged by probe 5 was investigated. Type 2 isozyme of 3α-HSD (AKR 1C3) was selected for this study owing to its important physiological role.
Fluorogenic substrate 5 reduction was monitored on a Hitachi F-4500 fluorimeter in Starna quartz cuvettes fluorometrically in 1 mL systems containing 100 mM potassium phosphate pH 6.0 containing excess of NADPH cofactor (250 μM) and various amounts of the substrate (0.1953-50 μM) dissolved in 4% acetonitrile. […] Cuvettes were mixed thoroughly after addition of cofactor, cosolvent, and substrate. Reactions were initiated by the addition of 4 μL of dilute AKR1C3 (115 μg/mL) and were corrected for nonenzymatic rates. All reactions were followed by monitoring the increase in fluorescence of the product alcohol for 5 minutes at λem 510 nm with λex 440 nm (Excitation and emission band pass slits both at 2.5 nm, lamp 900 V) at 37° C. The initial velocities, expressed in units of nanomoles per minute, were calculated according to previously published procedures (Wierzchowski, J.; Dafeldecker, W. P.; Holmquist, B.; Vallee, B. L. Anal. Biochem. 1989, 178, 57-62): initial rate=[nst×(Ft−F0)/(Fst)]/t where Ft and F0 represent the fluorescence at time t and 0, nst is the nanomoles of the product standard, and Fst is the fluorescence resulting from nst of product. Kinetic constants were approximated using the GraFit (Erithacus Software, Surrey, UK) non-linear regression analysis program to fit the untransformed data to a hyperbolic function as originally described (Wilkinson, G. N. Biochem. J. 1961, 80, 324-332), yielding estimated values of kcat, Km, and their associated standard errors.

SMILES | Kcat [1] [s⁻¹] | Km [1] [µM] | Kcat [2] [s⁻¹] | Km [2] [µM] | activity as substrate (product formation) [3] | activity as substrate (product formation) [1] | activity as substrate (product formation) [2] | activity as substrate (product formation) [4] | Kcat ([3]; potassium phosphate buffer pH 6, NADPH) [s⁻¹] | Kcat [5] [s⁻¹] | Km [5] [µM]
CC(=O)c1cc(=O)oc2cc(N(C)C)ccc12 | 0.035 | 14.8 | 0.145 | 4.3 | – | – | – | – | – | – | –
O=C(c1cc(=O)oc2c3c4c(cc12)CCCN4CCC3)C1CCCCC1 | – | – | – | – | no activity | no activity | no activity | no activity | – | – | –
CC(=O)c1cc(=O)oc2cc3c(cc12)CCCN3 | – | – | 0.155 | 4.3 | – | no activity | – | no activity | 0.00983 | – | –
CC(=O)c1cc(=O)oc2c3c4c(cc12)CCCN4CCC3 [drawing 207] | 0.00633 | 20.6 | 0.125 | 1.1 | – | – | – | – | – | – | –
CC(=O)c1c(Br)c(=O)oc2c3c4c(cc12)CCCN4CCC3 [drawing 212] | – | – | – | – | no activity | no activity | no activity | no activity | – | – | –
CC(=O)c1cc(=O)oc2c3c(ccc12)NCCC3 | 0.0233 | 40.2 | 0.115 | 8.3 | – | – | – | – | – | – | –
CC(=O)c1c(-c2ccccc2)c(=O)oc2c3c4c(cc12)CCCN4CCC3 [drawing 213] | – | – | – | – | no activity | no activity | no activity | no activity | – | – | –
O=C1CCc2c1c1cc3c4c(c1oc2=O)CCCN4CCC3 | – | – | 0.12 | 0.13 | – | no activity | – | – | – | – | –
C[C@]12CCC(=O)C[C@@H]1CC[C@@H]1[C@@H]2CC[C@]2(C)[C@@H](O)CC[C@@H]12 [5α-dihydrotestosterone, reference compound] | – | – | 0.00417 | 26 | – | – | – | – | – | 0.00417 | 26
CC(C)C(=O)c1cc(=O)oc2c3c4c(cc12)CCCN4CCC3 | – | – | – | – | no activity | no activity | no activity | no activity | – | – | –
O=C(c1ccccc1)c1cc(=O)oc2c3c4c(cc12)CCCN4CCC3 [drawing 210] | 0.0103 | 6.2 | 0.09 | 0.051 | – | – | – | – | – | – | –
